Test results as given in US11497785B2, “Oral anti-parasitic composition” (Mars, Incorporated, priority 2013, dated 2022).
Values after ≈ are worked out from the molar mass of the structure shown.

Test system: Neospora caninum
Assay: Proliferation assay of Neospora caninum in HFF cells, tritiated uracil incorporation
Type: cell-based
Conditions: positive control, read-out: ICSO
Method: In order to solubilize the essential oils, the oils were diluted in dimethyl sulfoxide (DMSO) and then spread in the cell culture medium (DMEM) that was supplemented with 10% fetal calf serum (D10). DMSO was also used at a final concentration not exceeding 0.1%. Separate cultures of both parasites, Toxoplasma gondii and Neospora caninum, were prepared in vitro in human cell type HFF (Human Foreskin Fibroblasts), grown at 37° C. under 5% CO2 in a D10 medium. Both cultures were similar, the inoculum used for the various tests were the same, […] per well. It was observed that growing Neospora caninum is slower than that of Toxoplasma gondii.
Proliferation of the parasite in the cells is measured by counting the specific radioactivity of the incorporated tritiated uracil and compared to the control without essential oil (100% proliferation). The test is performed in 24-well plates and the whole test lasts about 24 hours. The positive control is achieved using pyrimethamine (ICSO: 0.1 μg/mL).
Values represent inhibition of proliferation.
The inhibition of proliferation was measured by incorporating tritiated uracil in both Toxoplasma gondii and Neospora caninum and the viability of HFF cells was assessed using MTT assay.

CCc1nc(N)nc(N)c1-c1ccc(Cl)cc1 [pyrimethamine]
IC50: 0.1 mg/L (≈ 0.402 µM)
